Drawing on PubChem BioAssay AID192 (DTP/NCI, 2004), this text covers T/C for 22 compounds.

Values joined by “and” are separate entries in the source; they are usually repeats but may differ in a detail not shown here. Equal entries are not always repeated. Toxic doses and inconclusive results are not listed.

The assay deals with BDF1 mice, B16 melanoma ip, median survival T/C. Nature of the assay: NCI In Vivo Anticancer Drug Screen. Data for tumor model B16 Melanoma (intraperitoneal) in B6D2F1 (BDF1) mice. To be noted: endpoint: median survival time, higher = longer survival. The method, boiled down: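 The ratio T/C compares compound-treated mice with vehicle-treated controls, using survival or tumor size as the endpoint in a transplantable tumor model.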

[1] abbreviates: dose: 100.0 mg/kg/injection, schedule: Q01DX009 (ip), vehicle: Klucel (hydroxypropylcellulose) (HPC).
Setting [2] is: dose: 200.0 mg/kg/injection, schedule: Q01DX009 (ip), vehicle: Klucel (hydroxypropylcellulose) (HPC).
The mark [3] stands for this setting: dose: 400.0 mg/kg/injection, schedule: Q01DX009 (ip), vehicle: Klucel (hydroxypropylcellulose) (HPC).
Setting [4] is: dose: 100.0 mg/kg/injection, schedule: Q01DX009 (ip), vehicle: saline.
[5] abbreviates: dose: 200.0 mg/kg/injection, schedule: Q01DX009 (ip), vehicle: saline.
[6] abbreviates: dose: 400.0 mg/kg/injection, schedule: Q01DX009 (ip), vehicle: saline.
Where [7] appears, read: dose: 100.0 mg/kg/injection, schedule: Q01DX009 (ip), vehicle: saline with Tween-80.
The mark [8] stands for this setting: dose: 200.0 mg/kg/injection, schedule: Q01DX009 (ip), vehicle: saline with Tween-80.
[9] abbreviates: dose: 6.25 mg/kg/injection, schedule: Q01DX009 (ip), vehicle: Klucel (hydroxypropylcellulose) (HPC).
Where [10] appears, read: dose: 12.5 mg/kg/injection, schedule: Q01DX009 (ip), vehicle: Klucel (hydroxypropylcellulose) (HPC).
Setting [11] is: dose: 25.0 mg/kg/injection, schedule: Q01DX009 (ip), vehicle: Klucel (hydroxypropylcellulose) (HPC).
Where [12] appears, read: dose: 50.0 mg/kg/injection, schedule: Q01DX009 (ip), vehicle: Klucel (hydroxypropylcellulose) (HPC).
Setting [13] is: dose: 50.0 mg/kg/injection, schedule: Q01DX009 (ip), vehicle: saline.

Consider `COc1cccc(CNc2ccc(SC)cc2)c1OC`, for which the T/C under setting [1] was 100 % of control, the T/C under setting [2] was 93 % of control and the T/C under setting [3] was 93 % of control.

In the case of `[CH3][Sn]([CH3])([CH3])[O]C(=O)CCl`, the T/C was 104 % of control (dose: 0.02 mg/kg/injection, schedule: Q01DX009 (ip), vehicle: saline); 107 % of control (dose: 0.05 mg/kg/injection, schedule: Q01DX009 (ip), vehicle: saline); 109 % of control (dose: 0.1 mg/kg/injection, schedule: Q01DX009 (ip), vehicle: saline); 104 % of control (dose: 0.19 mg/kg/injection, schedule: Q01DX009 (ip), vehicle: saline); 93 % of control (dose: 0.2 mg/kg/injection, schedule: Q01DX009 (ip), vehicle: saline); 104 % of control (dose: 0.75 mg/kg/injection, schedule: Q01DX009 (ip), vehicle: saline).

In the case of `Cc1ccc2nc3c4ccccc4c4ccccc4c3nc2c1`, the T/C is 102 % of control (dose: 100.0 mg/kg/injection, schedule: Q04DX003 (ip), vehicle: Klucel (hydroxypropylcellulose) (HPC)); 97 % of control (dose: 200.0 mg/kg/injection, schedule: Q04DX003 (ip), vehicle: Klucel (hydroxypropylcellulose) (HPC)); 91 % of control (dose: 400.0 mg/kg/injection, schedule: Q04DX003 (ip), vehicle: Klucel (hydroxypropylcellulose) (HPC)).

As for `C[CH2][Ge]1([CH2]C)[CH2]CC2(CCN(CCCN(C)C)C2)C[CH2]1`, the T/C reads like this: (dose: 8.0 mg/kg/injection, schedule: Q02DX009 (ip), vehicle: saline) 102 % of control; (dose: 16.0 mg/kg/injection, schedule: Q02DX009 (ip), vehicle: saline) 106 % of control; (dose: 32.0 mg/kg/injection, schedule: Q02DX009 (ip), vehicle: saline) 102 % of control.

`CS(=O)(=O)O`: the T/C is 106 % of control under setting [4], 113 % of control under setting [5] and 123 % of control under setting [6].

In the case of `CCC(=O)Nc1cc(C(F)(F)F)ccc1Cl`, the T/C (dose: 25.0 mg/kg/injection, schedule: Q01DX009 (ip), vehicle: saline with Tween-80) was 100 % of control; the T/C (dose: 50.0 mg/kg/injection, schedule: Q01DX009 (ip), vehicle: saline with Tween-80) was 101 % of control and 119 % of control; the T/C under setting [7] is 96 % of control and 105 % of control; the T/C under setting [8] was 105 % of control.

For `CC(C)(O)C(I)C[n+]1ccccc1` (configuration not stated), the T/C runs as follows: (dose: 100.0 mg/kg/injection, schedule: Q04DX003 (ip), vehicle: saline) 109 % of control; (dose: 200.0 mg/kg/injection, schedule: Q04DX003 (ip), vehicle: saline) 101 % of control; (dose: 400.0 mg/kg/injection, schedule: Q04DX003 (ip), vehicle: saline) 114 % of control.

As to `COC(=O)C1=C(O)CN(C)C1=O`, the T/C (dose: 37.5 mg/kg/injection, schedule: Q04DX003 (ip), vehicle: saline) is 102 % of control; the T/C (dose: 75.0 mg/kg/injection, schedule: Q04DX003 (ip), vehicle: saline) is 100 % of control; the T/C (dose: 150.0 mg/kg/injection, schedule: Q04DX003 (ip), vehicle: saline) was 108 % of control.

In the case of `CC(Cc1ccccc1)NC(=O)/C=C/C(=O)O` (configuration not stated), the T/C runs as follows: under setting [1], 95 % of control; under setting [2], 91 % of control; under setting [3], 89 % of control.

Regarding `COc1ccc(C(=O)/C=C/c2ccc3c(c2)OCO3)cc1OC`, the T/C was 96 % of control under setting [1] and 93 % of control under setting [2].

`CC[C@@H]1O[C@@H]([C@@H]2CC[C@](O)([C@]3(C)CC[C@@H]([C@@H](C)[C@@]4(O)CC[C@H](C)[C@@H](C[C@@]5(O)O[C@@H]([C@@H](C)[C@H](O)C[C@H]6CC[C@H](C)[C@@H]([C@@H](C)C(=O)O)O6)CC[C@@H]5C)O4)O3)O2)CC[C@@]1(C)O`: the T/C (dose: 0.12 mg/kg/injection, schedule: Q01DX009 (ip), vehicle: saline) is 91 % of control; the T/C (dose: 0.25 mg/kg/injection, schedule: Q01DX009 (ip), vehicle: saline) was 89 % of control; the T/C (dose: 0.5 mg/kg/injection, schedule: Q01DX009 (ip), vehicle: saline) was 96 % of control.

In the case of `O=Cc1cc2c(cc1Cl)OCO2`, the T/C was 107 % of control under setting [7]; 101 % of control under setting [8]; 99 % of control (dose: 400.0 mg/kg/injection, schedule: Q01DX009 (ip), vehicle: saline with Tween-80).

On to `CS(=O)(=O)OCc1c(O)c2c(c(O)c1COS(C)(=O)=O)C(=O)C=CC2=O`, for which the T/C reads like this: under setting [9], 111 % of control; under setting [10], 106 % of control; under setting [11], 102 % of control; under setting [12], 97 % of control.

For the compound `CC(CN=Cc1ccccc1O)N=Cc1ccccc1O` (configuration not stated), the T/C was 91 % of control under setting [10], 88 % of control under setting [11], 87 % of control under setting [12] and 89 % of control under setting [1].

With `CC[C@H]1CN2CCc3cc(OC)c(OC)cc3[C@@H]2C[C@@H]1C[C@H]1NCCc2cc(OC)c(OC)cc21`, the T/C by setting is: (dose: 0.87 mg/kg/injection, schedule: Q01DX009 (ip), vehicle: saline) 103 % of control and 104 % of control; (dose: 1.75 mg/kg/injection, schedule: Q01DX009 (ip), vehicle: saline) 100 % of control and 103 % of control; (dose: 3.5 mg/kg/injection, schedule: Q01DX009 (ip), vehicle: saline) 105 % of control and 111 % of control; (dose: 7.0 mg/kg/injection, schedule: Q01DX009 (ip), vehicle: saline) 116 % of control; (dose: 7.8 mg/kg/injection, schedule: Q04DX003 (ip), vehicle: saline) 108 % of control; (dose: 11.2 mg/kg/injection, schedule: Q04DX003 (ip), vehicle: saline) 98 % of control. The T/C (dose: 16.0 mg/kg/injection, schedule: Q04DX003 (ip), vehicle: saline) was 107 % of control and the T/C (dose: 22.9 mg/kg/injection, schedule: Q04DX003 (ip), vehicle: saline) was 104 % of control.

As for `O=C(CCCN1CC=C(n2c(=O)[nH]c3ccccc32)CC1)c1ccc(F)cc1`, the T/C by setting is: (dose: 3.12 mg/kg/injection, schedule: Q01DX009 (ip), vehicle: Klucel (hydroxypropylcellulose) (HPC)) 92 % of control; under setting [9], 92 % of control and 95 % of control; under setting [10], 98 % of control; under setting [11], 90 % of control and 95 % of control; under setting [12], 97 % of control; under setting [1], 93 % of control. Besides, the T/C under setting [2] is 95 % of control.

Regarding `OCCNCCNc1ccnc2cc(Cl)ccc12`, the T/C (dose: 12.5 mg/kg/injection, schedule: Q01DX009 (ip), vehicle: saline) was 89 % of control; the T/C (dose: 25.0 mg/kg/injection, schedule: Q01DX009 (ip), vehicle: saline) was 104 % of control; the T/C under setting [13] is 99 % of control; the T/C under setting [4] was 110 % of control.

Take `c1ccc([B-]2([C+]3CCCCC3)N3CCCCC3C3CCCCN32)cc1` (configuration not stated): the T/C under setting [10] is 106 % of control and the T/C under setting [11] was 93 % of control.

In the case of `COC(=O)C(CCl)NC(C)=O` (configuration not stated), the T/C under setting [4] was 102 % of control, the T/C under setting [5] was 102 % of control and the T/C under setting [6] was 117 % of control.

Turning to `O=C(O)CC(NC(=O)CP(=O)(O)O)C(=O)O.[NH-]C1CCCCC1[NH-].[Pt+2]` (configuration not stated), the T/C is 122 % of control (dose: 0.4 mg/kg/injection, schedule: Q01DX009 (ip), vehicle: dextrose); 154 % of control (dose: 0.78 mg/kg/injection, schedule: Q01DX009 (ip), vehicle: dextrose); 165 % of control (dose: 1.56 mg/kg/injection, schedule: Q01DX009 (ip), vehicle: dextrose); 123 % of control (dose: 3.0 mg/kg/injection, schedule: Q01DX009 (ip), vehicle: dextrose); 163 % of control (dose: 3.2 mg/kg/injection, schedule: Q01DX009 (ip), vehicle: dextrose).

On to `CCC[CH2][Sn-]([CH2]CCC)([CH2]CCC)[O]c1cc(Cl)c(Cl)cc1Cl`, for which the T/C (dose: 0.25 mg/kg/injection, schedule: Q01DX009 (ip), vehicle: Klucel (hydroxypropylcellulose) (HPC)) is 95 % of control; the T/C (dose: 0.5 mg/kg/injection, schedule: Q01DX009 (ip), vehicle: Klucel (hydroxypropylcellulose) (HPC)) was 94 % of control; the T/C (dose: 1.0 mg/kg/injection, schedule: Q01DX009 (ip), vehicle: Klucel (hydroxypropylcellulose) (HPC)) was 96 % of control.

In the case of `Cn1ccccc1=O`, the T/C runs as follows: under setting [13], 124 % of control; under setting [4], 120 % of control; under setting [5], 117 % of control.
